This note sets out measurements from patent publication EP0908457B1, “3-(1,2-benzisothiazol- and isoxazol-5-Y1)-2,4(1H,3H)-pyrimidinedione or thione and 3-(1,2-benzisothiazol- and isoxazol-5-y1)-4(3H)-pyrimidinone or thione herbicidal agents” (BASF AKTIENGESELLSCHAFT, priority 1997, dated 1999).

Data set [1] relates to Echinochloa oryzoides (Ard.) Fritsch. Nature of the data set: Preemergence weed control under flooded paddy conditions, ECHORC (Watergrass (Calif.)). The conditions noted are these: preemergence, flooded paddy, rated three to four weeks after treatment. It counts as in vivo.
For data set [2], the system named is Cyperus iria. Nature of the data set: Preemergence weed control under flooded paddy conditions, CYPIR (Rice Flatsedge). Particulars: preemergence, flooded paddy, rated three to four weeks after treatment. Type of data set: in vivo.
Data set [3] relates to Cyperus serotinus, Rottb. Nature of the data set: Preemergence weed control under flooded paddy conditions, CYPSE (Flatsedge). Particulars: preemergence, rated three to four weeks after treatment. Type of data set: in vivo.
In data set [4] the test system is Monochoria vaginalis, Presl. Nature of the data set: Preemergence weed control under flooded paddy conditions, MOOVA (Monochoria). Type of data set: in vivo. The conditions noted are these: preemergence, flooded paddy, rated three to four weeks after treatment.
In data set [5] the test system is Sagittaria pygmaea, L. Nature of the data set: Preemergence weed control under flooded paddy conditions, SAGPY (Arrowhead (Pygmaea)). Type of data set: in vivo. The conditions noted are these: preemergence, flooded paddy, rated three to four weeks after treatment.
For data set [6], the system named is Oryza sativa, (L.) Tebonnet. Nature of the data set: Rice tolerance to post-transplant applications under flooded paddy conditions (Example 187), ORYSAT (Rice, Tebonnet). The conditions noted are these: rated three to four weeks after treatment.

With `Cc1cccc(CS(=O)(=O)NC(=O)c2nsc3ccc(-n4c(=O)cc(C(F)(F)F)n(C)c4=O)cc23)c1` [Example 483, 1,2-Benzisothiazole-3-carboxamide, 5-[3,6-dihydro-3-methyl-2,6-dioxo-4-(trifluoromethyl)-1(2H)-pyrimidinyl]-N-[(m-methylbenzyl)sulfonyl]-], the ECHORC herbicidal rating amounted to 6.0 in data set [1] (0.0320 kg/ha), 7.0 in data set [1] (0.0620 kg/ha), 7.0 in data set [1] (0.1250 kg/ha) and 7.0 in data set [1] (0.2500 kg/ha). Further, the CYPIR herbicidal rating in data set [2] (0.0320 kg/ha) is 0.0; in data set [2] (0.0620 kg/ha), 2.0; in data set [2] (0.1250 kg/ha) it was 5.0; in data set [2] (0.2500 kg/ha) it was 6.0. The CYPSE herbicidal rating in data set [3] (0.0620 kg/ha) is listed as 4.0; in data set [3] (0.2500 kg/ha) it was 6.0. The MOOVA herbicidal rating came to 7.0 in data set [4] (0.0320 kg/ha), 9.0 in data set [4] (0.0620 kg/ha), 9.0 in data set [4] (0.1250 kg/ha) and 9.0 in data set [4] (0.2500 kg/ha). In addition, the SAGPY herbicidal rating in data set [5] (0.0320 kg/ha) is listed as 0.0; in data set [5] (0.0620 kg/ha) it was 0.0; in data set [5] (0.1250 kg/ha), 3.0; in data set [5] (0.2500 kg/ha), 5.0. Moreover, the “ORYSAT herbicidal rating (rice tolerance)” value (shortened to “ORYSAT herbicidal rating”) in data set [6] (0.0320 kg/ha) is on record as 3.0; in data set [6] (0.0620 kg/ha) it was 3.0; in data set [6] (0.1250 kg/ha), 5.0; in data set [6] (0.2500 kg/ha), 6.0.

In the case of `CSCOCc1nsc2ccc(-n3c(=O)cc(C(F)(F)F)n(C)c3=O)cc12` [Example 484, 2,4(1H,3H)-Pyrimidinedione, 1-methyl-3-{3-{[(methylthio)methoxy]methyl}-1,2-benzisothiazol-5-yl}-6-(trifluoromethyl)-], the ECHORC herbicidal rating amounted to 5.0 in data set [1] (0.0320 kg/ha), 4.0 in data set [1] (0.0620 kg/ha), 7.0 in data set [1] (0.1250 kg/ha) and 9.0 in data set [1] (0.2500 kg/ha). The CYPIR herbicidal rating in data set [2] (0.0320 kg/ha) was 4.0; in data set [2] (0.0620 kg/ha) it was 4.0; in data set [2] (0.1250 kg/ha), 6.0; in data set [2] (0.2500 kg/ha), 9.0. The compound also yielded a CYPSE herbicidal rating in data set [3] (0.0320 kg/ha) of 0.0. In addition, the MOOVA herbicidal rating in data set [4] (0.0320 kg/ha) was determined as 7.0; in data set [4] (0.0620 kg/ha), 9.0; in data set [4] (0.1250 kg/ha), 9.0; in data set [4] (0.2500 kg/ha) it was 9.0. Moreover, in data set [5] (0.0320 kg/ha), the SAGPY herbicidal rating is reported as 5.0. The “ORYSAT herbicidal rating” value in data set [6] (0.0320 kg/ha) was 5.0; in data set [6] (0.0620 kg/ha), 5.0; in data set [6] (0.1250 kg/ha) it was 6.0; in data set [6] (0.2500 kg/ha), 6.0.

On to `Cn1c(C(F)(F)F)cc(=O)n(-c2ccc3snc(C(=O)NS(=O)(=O)CCc4ccccc4)c3c2)c1=O` [Example 485, 1,2-Benzisothiazole-3-carboxamide, 5-[3,6-dihydro-3-methyl-2,6-dioxo-4-(trifluoromethyl)-1(2H)-pyrimidinyl]-N-(phenethylsulfonyl)-], for which the ECHORC herbicidal rating is listed as 4.0 in data set [1] (0.0320 kg/ha), 6.0 in data set [1] (0.0620 kg/ha), 6.0 in data set [1] (0.1250 kg/ha) and 9.0 in data set [1] (0.2500 kg/ha). The CYPIR herbicidal rating is listed as 2.0 in data set [2] (0.0320 kg/ha), 4.0 in data set [2] (0.0620 kg/ha), 5.0 in data set [2] (0.1250 kg/ha) and 6.0 in data set [2] (0.2500 kg/ha). The CYPSE herbicidal rating in data set [3] (0.0320 kg/ha) and in data set [3] (0.0620 kg/ha) was 0.0 throughout. The MOOVA herbicidal rating in data set [4] (0.0320 kg/ha) is listed as 4.0; in data set [4] (0.0620 kg/ha), 6.0; in data set [4] (0.1250 kg/ha), 7.0; in data set [4] (0.2500 kg/ha) it was 8.0. Also, the SAGPY herbicidal rating was determined as 0.0 in data set [5] (0.0320 kg/ha), 0.0 in data set [5] (0.0620 kg/ha), 0.0 in data set [5] (0.1250 kg/ha) and 3.0 in data set [5] (0.2500 kg/ha). In addition, the “ORYSAT herbicidal rating” value was 0.0 in data set [6] (0.0320 kg/ha), 2.0 in data set [6] (0.0620 kg/ha), 4.0 in data set [6] (0.1250 kg/ha) and 5.0 in data set [6] (0.2500 kg/ha).

For the compound `Cn1c(C(F)(F)F)cc(=O)n(-c2ccc3snc(C(=O)NS(=O)(=O)Cc4cccc(Cl)c4)c3c2)c1=O` [Example 486, 1,2-Benzisothiazole-3-carboxamide, N-[(m-chlorobenzyl)sulfonyl]-5-[3,6-dihydro-3-methyl-2,6-dioxo-4-(trifluoromethyl)-1(2H)-pyrimidinyl]-], the ECHORC herbicidal rating is recorded as 4.0 in data set [1] (0.0320 kg/ha), 6.0 in data set [1] (0.0620 kg/ha), 7.0 in data set [1] (0.1250 kg/ha) and 9.0 in data set [1] (0.2500 kg/ha). The CYPIR herbicidal rating was 4.0 in data set [2] (0.0320 kg/ha), 5.0 in data set [2] (0.0620 kg/ha), 6.0 in data set [2] (0.1250 kg/ha) and 6.0 in data set [2] (0.2500 kg/ha). For the same compound, the results for the CYPSE herbicidal rating in data set [3] (0.0320 kg/ha), in data set [3] (0.0620 kg/ha) and in data set [3] (0.2500 kg/ha) were 0.0, 0.0 and 3.0, respectively. Also, the MOOVA herbicidal rating in data set [4] (0.0320 kg/ha) came out at 5.0; in data set [4] (0.0620 kg/ha), 6.0; in data set [4] (0.1250 kg/ha) it was 7.0; in data set [4] (0.2500 kg/ha), 9.0. The SAGPY herbicidal rating came out at 0.0 in data set [5] (0.0320 kg/ha), 0.0 in data set [5] (0.0620 kg/ha), 3.0 in data set [5] (0.1250 kg/ha) and 6.0 in data set [5] (0.2500 kg/ha). Also, the “ORYSAT herbicidal rating” value is listed as 0.0 in data set [6] (0.0320 kg/ha), 3.0 in data set [6] (0.0620 kg/ha), 5.0 in data set [6] (0.1250 kg/ha) and 6.0 in data set [6] (0.2500 kg/ha).

Regarding `Cn1c(C(F)(F)F)cc(=O)n(-c2ccc3snc(C(C)(C)C(=O)OCc4ccco4)c3c2)c1=O` [Example 487, 1,2-Benzisothiazole-3-acetic acid, 5-[3,6-dihydro-3-methyl-2,6-dioxo-4-(trifluoromethyl)-1(2H)-pyrimidinyl]-alpha,alpha-dimethyl-, furfuryl ester], the ECHORC herbicidal rating in data set [1] (0.0320 kg/ha) stood at 6.0; in data set [1] (0.0620 kg/ha), 7.0; in data set [1] (0.1250 kg/ha) it was 7.0; in data set [1] (0.2500 kg/ha), 9.0. Further, the CYPIR herbicidal rating in data set [2] (0.0320 kg/ha) turned out to be 4.0; in data set [2] (0.0620 kg/ha), 5.0; in data set [2] (0.1250 kg/ha), 6.0; in data set [2] (0.2500 kg/ha) it was 9.0. In data set [3] (0.2500 kg/ha), this compound showed a CYPSE herbicidal rating of 3.0. In addition, the MOOVA herbicidal rating in data set [4] (0.0320 kg/ha) is recorded as 7.0; in data set [4] (0.0620 kg/ha) it was 9.0; in data set [4] (0.1250 kg/ha) it was 9.0; in data set [4] (0.2500 kg/ha) it was 9.0. The SAGPY herbicidal rating was found to be 4.0 in data set [5] (0.0320 kg/ha), 5.0 in data set [5] (0.0620 kg/ha), 6.0 in data set [5] (0.1250 kg/ha) and 7.0 in data set [5] (0.2500 kg/ha). Besides, the “ORYSAT herbicidal rating” value in data set [6] (0.0320 kg/ha) turned out to be 2.0; in data set [6] (0.0620 kg/ha), 3.0; in data set [6] (0.1250 kg/ha) it was 6.0; in data set [6] (0.2500 kg/ha), 7.0.

In the case of `Cn1c(C(F)(F)F)cc(=O)n(-c2ccc3snc(C(C)(C)C(=O)NS(C)(=O)=O)c3c2)c1=O` [Example 488, 1,2-Benzisothiazole-3-acetamide, 5-[3,6-dihydro-3-methyl-2,6-dioxo-4-(trifluoromethyl)-1(2H)-pyrimidinyl]-alpha,alpha-dimethyl-N-(methylsulfonyl)-], the ECHORC herbicidal rating in data set [1] (0.0320 kg/ha), in data set [1] (0.0620 kg/ha), in data set [1] (0.1250 kg/ha) and in data set [1] (0.2500 kg/ha) was 0.0 in each case. Besides, the CYPIR herbicidal rating in data set [2] (0.0320 kg/ha) is listed as 3.0; in data set [2] (0.0620 kg/ha), 3.0; in data set [2] (0.1250 kg/ha), 4.0; in data set [2] (0.2500 kg/ha) it was 5.0. Moreover, the CYPSE herbicidal rating in data set [3] (0.0620 kg/ha) and in data set [3] (0.1250 kg/ha) was 0.0 each time. Moreover, the MOOVA herbicidal rating amounted to 7.0 in data set [4] (0.0320 kg/ha), 9.0 in data set [4] (0.0620 kg/ha), 9.0 in data set [4] (0.1250 kg/ha) and 9.0 in data set [4] (0.2500 kg/ha). Further, the SAGPY herbicidal rating in data set [5] (0.0320 kg/ha), in data set [5] (0.0620 kg/ha), in data set [5] (0.1250 kg/ha) and in data set [5] (0.2500 kg/ha) was 0.0 each time. In addition, the “ORYSAT herbicidal rating” value amounted to 3.0 in data set [6] (0.0320 kg/ha), 3.0 in data set [6] (0.0620 kg/ha), 4.0 in data set [6] (0.1250 kg/ha) and 4.0 in data set [6] (0.2500 kg/ha).
